Laboratory results from patent publication US8916526B2, “Flavanone derivative” (National University Corporation Okayama University, priority 2009, dated 2014).
pIC50: −log10 of the molar value. Values after ≈ are worked out from the molar mass of the structure shown.

Key:
[1] = target: T1, DNA gyrase of Escherichia coli (Escherichia coli, UniProt P0AES4+P0AES6); assay: DNA gyrase inhibition (supercoiling assay kit), Exp. Ex. 1-2; format: biochemical; settings: E. coli DNA gyrase supercoiling, relaxed pBR322, 37° C., 30 minutes; read-out: Gyrase inhibitory activity IC50 (converted)
T1 construct: purchased John Innes Enterprises #K0001
T1 sequence (P0AES4 whole entry, one chain of several): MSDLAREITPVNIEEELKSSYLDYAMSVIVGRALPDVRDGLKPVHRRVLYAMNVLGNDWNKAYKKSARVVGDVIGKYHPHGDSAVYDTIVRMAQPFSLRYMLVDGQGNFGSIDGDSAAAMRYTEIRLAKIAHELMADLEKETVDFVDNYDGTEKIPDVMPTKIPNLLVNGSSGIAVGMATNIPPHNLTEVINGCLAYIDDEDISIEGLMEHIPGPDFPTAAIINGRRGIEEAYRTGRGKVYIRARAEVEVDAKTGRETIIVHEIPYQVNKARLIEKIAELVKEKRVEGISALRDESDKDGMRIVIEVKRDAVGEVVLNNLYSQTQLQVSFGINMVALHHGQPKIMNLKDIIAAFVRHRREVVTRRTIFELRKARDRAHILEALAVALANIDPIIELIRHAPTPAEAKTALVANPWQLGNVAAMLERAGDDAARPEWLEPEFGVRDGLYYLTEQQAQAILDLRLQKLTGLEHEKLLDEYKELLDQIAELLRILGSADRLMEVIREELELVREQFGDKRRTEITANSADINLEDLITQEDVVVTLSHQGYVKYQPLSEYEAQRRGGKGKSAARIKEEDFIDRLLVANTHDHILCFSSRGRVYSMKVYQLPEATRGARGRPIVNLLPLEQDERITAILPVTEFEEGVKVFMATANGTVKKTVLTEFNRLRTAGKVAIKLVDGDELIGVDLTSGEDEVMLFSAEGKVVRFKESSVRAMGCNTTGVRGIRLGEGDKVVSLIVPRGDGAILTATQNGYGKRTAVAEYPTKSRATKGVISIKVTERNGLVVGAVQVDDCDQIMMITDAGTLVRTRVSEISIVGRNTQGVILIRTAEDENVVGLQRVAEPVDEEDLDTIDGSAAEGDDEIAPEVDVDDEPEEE
Experimental: As a kit for measurement of DNA gyrase of Escherichia coli, a product purchased from John Innes Enterprises (Gyrase Supercoiling assay kit #K0001) was used. Relaxed DNA was modified with gyrase into supercoiled DNA, and reaction products were separated by electrophoresis depending on the sizes of the molecular weights to examine anti-gyrase effects (IC50). One unit (1 U) of DNA gyrase and […] of relaxed pBR322 DNA were added to […] of the reaction solution, and the mixture was allowed to react at 37° C. for 30 minutes in the presence of 35 mM Tris-HCl (pH 7.5), 24 mM KCl, 4 mM MgCl2, 2 mM DTT, 1.8 mM spermidine, 1 mM ATP, 6.5% (w/v) glycerol, and 0.1 mg/ml BSA. The reactions were stopped using […] of a reaction stop solution (40% sucrose, 100 mM Tris-HCl (pH 7.5), 1 mM EDTA, 0.5 mg/ml bromophenol blue).

MRSA OM481 = assay: In vitro infectivity assay (MIC), broth dilution, Exp. Ex. 1-1; format: cell-based, Staphylococcus aureus; settings: Staphylococcus aureus; MRSA OM481; Mueller-Hinton broth, 35° C., 24 hours; read-out: MIC MRSA OM481
Experimental: (§1) The antibacterial activities were measured based on broth dilution techniques of international standards (Clinical Laboratory Standards Institute: CLSI). The activities were shown by minimum inhibitory concentrations (MICs) determined by inoculating the above-mentioned strains at a concentration of about 10^5 […] into Mueller-Hinton broth (manufactured by Difco) containing 0.85% NaCl in 96-well microplates and incubating the plates at 35° C. for 24 hours. Measurement was carried out three times.
(§2) The antibacterial activities of the compounds of the present invention against various strains such as methicillin-resistant Staphylococcus aureus (MRSA), vancomycin intermediate-resistant Staphylococcus aureus (VISA), methicillin-sensitive Staphylococcus aureus (MSSA), and vancomycin-resistant enterococci (VRE) were examined. Of the bacteria used in MIC measurement in this test example, clinical bacteria of MRSA (OM481 strain and OM584 strain) were supplied from Okayama University Hospital (Japan). An MRSA strain N315, a vancomycin intermediate-resistant Staphylococcus aureus (VISA) strain Mu50, and a methicillin-sensitive Staphylococcus aureus (MSSA) strain FDA 209P were used as controls. Vancomycin-resistant enterococcus (VRE) strains NCTC 12201 and FN-1 were supplied from the National Institute of Infectious Disease (Japan).

VISA Mu50 = assay: as above; format: cell-based, Staphylococcus aureus; settings: Staphylococcus aureus; VISA Mu50; Mueller-Hinton broth, 35° C., 24 hours; read-out: MIC VISA Mu50
Experimental: as §1, §2

MRSA N315 = assay: as above; format: cell-based, Staphylococcus aureus; settings: Staphylococcus aureus; MRSA N315; Mueller-Hinton broth, 35° C., 24 hours; read-out: MIC MRSA N315
Experimental: as §1, §2

MRSA OM58 = assay: as above; format: cell-based, Staphylococcus aureus; settings: Staphylococcus aureus; MRSA OM58; Mueller-Hinton broth, 35° C., 24 hours; read-out: MIC MRSA OM58
Experimental: as §1, §2

MSSA FDA 209P = assay: as above; format: cell-based, Staphylococcus aureus; settings: Staphylococcus aureus; MSSA FDA 209P; Mueller-Hinton broth, 35° C., 24 hours; read-out: MIC MSS 209P
Experimental: as §1, §2

VRE NCTC12201 = assay: as above; format: cell-based, enterococci; settings: Enterococcus; VRE NCTC12201; Mueller-Hinton broth, 35° C., 24 hours; read-out: MIC VRE NCTC12201
Experimental: as §1, §2

VRE FN-1 = assay: as above; format: cell-based, enterococci; settings: Enterococcus; VRE FN-1; Mueller-Hinton broth, 35° C., 24 hours; read-out: MIC VRE FN-1
Experimental: as §1, §2

[2] = tested on: Methicillin-resistant S. aureus OM584; assay: In vitro infectivity assay (MIC), Exp. Ex. 2-1; format: cell-based, Staphylococcus aureus; settings: Staphylococcus aureus, MRSA; Gram-positive; microdilution, MIC after 24 h; read-out: MIC MRSA OM584
How it was run: (§3)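 CLSI broth dilution; Mueller-Hinton + 0.85% NaCl; inoculum ~10^5 CUF/[…]; 35° C, 24 h; MIC read, n=3.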

[3] = tested on: Methicillin-resistant S. aureus COL; assay: In vitro infectivity assay (MIC), Exp. Ex. 2-1; format: cell-based, Staphylococcus aureus; settings: Staphylococcus aureus, MRSA; Gram-positive; microdilution, MIC after 24 h
[4] = tested on: Methicillin sensitive S. aureus 209P; assay: In vitro infectivity assay (MIC), Exp. Ex. 2-1; format: cell-based, Staphylococcus aureus; settings: Staphylococcus aureus, 209P / MSSA; Gram-positive; microdilution, MIC after 24 h; read-out: MIC MSSA 209P
How it was run: as §3

[5] = tested on: Methicillin-resistant S. aureus OM481; assay: In vitro infectivity assay (MIC), Exp. Ex. 2-1; format: cell-based, Staphylococcus aureus; settings: Staphylococcus aureus, MRSA; Gram-positive; microdilution, MIC after 24 h; read-out: MIC MRSA OM481
How it was run: as §3

[6] = tested on: Methicillin-resistant S. aureus N315; assay: In vitro infectivity assay (MIC), Exp. Ex. 2-1; format: cell-based, Staphylococcus aureus; settings: Staphylococcus aureus, MRSA; Gram-positive; microdilution, MIC after 24 h; read-out: MIC MRSA N315
How it was run: as §3

E. coli DNA gyrase = target: T2, E. coli DNA gyrase (Escherichia coli, UniProt P0AES4+P0AES6); assay: DNA gyrase inhibition (supercoiling kit), Exp. Ex. 2-2; format: biochemical
T2 construct: purchased John Innes Enterprises #K0001
T2 sequence (P0AES4 whole entry, one chain of several): as above
How it was run: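 Supercoiling of relaxed pBR322 DNA ([…]) by 1 U E. coli gyrase, 37° C for 30 minutes, in 35 mM Tris-HCl pH 7.5 with 1 mM ATP, 4 mM MgCl2, 24 mM KCl, spermidine and DTT. Products resolved by electrophoresis to derive IC50.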

[7] = target: T3, Escherichia coli Topoisomerase IV (Escherichia coli, UniProt P0AFI2+P20083); assay: Topoisomerase IV inhibition (decatenation kit), Exp. Ex. 2-3; format: biochemical; settings: decatenation of kDNA, 37° C., 30 minutes; read-out: IC50 (E. coli topoisomerase IV inhibitions)
T3 construct: purchased John Innes Enterprises
T3 sequence (P20083 whole entry): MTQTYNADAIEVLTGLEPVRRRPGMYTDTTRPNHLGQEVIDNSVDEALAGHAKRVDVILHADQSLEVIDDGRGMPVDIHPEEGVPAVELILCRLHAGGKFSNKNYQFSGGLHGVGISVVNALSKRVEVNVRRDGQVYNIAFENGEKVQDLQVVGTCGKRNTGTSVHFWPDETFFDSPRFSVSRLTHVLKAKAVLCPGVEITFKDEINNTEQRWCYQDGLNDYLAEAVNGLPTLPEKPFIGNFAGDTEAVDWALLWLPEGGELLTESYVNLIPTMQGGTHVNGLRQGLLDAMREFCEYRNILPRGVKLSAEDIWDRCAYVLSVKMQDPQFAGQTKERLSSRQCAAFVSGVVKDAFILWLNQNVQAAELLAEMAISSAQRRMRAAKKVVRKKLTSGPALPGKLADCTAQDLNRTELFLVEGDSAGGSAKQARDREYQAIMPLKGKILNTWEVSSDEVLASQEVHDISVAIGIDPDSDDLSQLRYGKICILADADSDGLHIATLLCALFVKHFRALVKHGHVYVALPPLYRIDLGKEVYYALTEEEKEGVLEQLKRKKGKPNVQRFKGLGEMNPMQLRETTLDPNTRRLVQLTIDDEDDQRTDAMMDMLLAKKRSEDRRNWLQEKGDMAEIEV
T3 sequence (P0AFI2 whole entry): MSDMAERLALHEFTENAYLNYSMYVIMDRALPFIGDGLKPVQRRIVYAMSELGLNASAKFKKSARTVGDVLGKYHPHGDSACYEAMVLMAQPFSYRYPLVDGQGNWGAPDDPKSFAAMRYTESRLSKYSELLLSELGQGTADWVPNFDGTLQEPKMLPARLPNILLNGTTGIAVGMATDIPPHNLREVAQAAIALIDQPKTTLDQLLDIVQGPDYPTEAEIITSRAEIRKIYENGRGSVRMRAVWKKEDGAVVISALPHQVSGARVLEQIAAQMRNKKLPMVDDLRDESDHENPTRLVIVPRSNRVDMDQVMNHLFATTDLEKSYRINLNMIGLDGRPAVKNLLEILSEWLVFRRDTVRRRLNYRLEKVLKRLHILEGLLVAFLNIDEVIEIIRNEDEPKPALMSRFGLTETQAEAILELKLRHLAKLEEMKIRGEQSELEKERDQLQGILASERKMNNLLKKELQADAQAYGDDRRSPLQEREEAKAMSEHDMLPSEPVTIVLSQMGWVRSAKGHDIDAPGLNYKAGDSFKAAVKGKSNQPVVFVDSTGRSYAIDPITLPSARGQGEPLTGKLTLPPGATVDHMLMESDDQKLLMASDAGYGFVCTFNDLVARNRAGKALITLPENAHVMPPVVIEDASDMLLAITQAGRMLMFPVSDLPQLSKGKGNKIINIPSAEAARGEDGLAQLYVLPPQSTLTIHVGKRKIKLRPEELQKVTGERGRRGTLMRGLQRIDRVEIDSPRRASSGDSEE
Experimental: (§4) Staphylococcus aureus Topoisomerase IV and Escherichia coli Topoisomerase IV were purchased from John Innes Enterprises. 1 unit of topoisomerase IV was cultured with 200 ng of kinetoplast DNA (kDNA) in 30 L of a reaction solution at 37° C. for 30 minutes under the conditions of 50 mM Tris-HCl (pH 7.5) (S. aureus)/50 mM HEPES-KOH (pH 7.6) (E. coli), 5 mM MgCl2 (S. aureus)/5 mM magnesium acetate (E. coli), 350 mM potassium glutamate (S. aureus)/100 mM potassium glutamate (E. coli), 5 mM dithiotheri (S. aureus)/10 mM dithiotheri (E. coli), 1.5 mM ATP (S. aureus)/1 mM ATP (E. coli), and 40% (w/v) glycerol. The reactions were stopped by adding 8 L of a reaction stop solution (40% sucrose, 100 mM Tris.HCl (pH 7.5), 1 mM EDTA, 0.5 mg/ml bromophenol blue). Agarose gel (1.0%) was poured into TAE (40 mM Tris acetate, 2 mM EDTA).

[8] = target: T4, Staphylococcus aureus Topoisomerase IV (Staphylococcus aureus, UniProt P0C1S7+P0C1U9); assay: as above; format: biochemical
T4 construct: purchased John Innes Enterprises
T4 sequence (P0C1U9 whole entry): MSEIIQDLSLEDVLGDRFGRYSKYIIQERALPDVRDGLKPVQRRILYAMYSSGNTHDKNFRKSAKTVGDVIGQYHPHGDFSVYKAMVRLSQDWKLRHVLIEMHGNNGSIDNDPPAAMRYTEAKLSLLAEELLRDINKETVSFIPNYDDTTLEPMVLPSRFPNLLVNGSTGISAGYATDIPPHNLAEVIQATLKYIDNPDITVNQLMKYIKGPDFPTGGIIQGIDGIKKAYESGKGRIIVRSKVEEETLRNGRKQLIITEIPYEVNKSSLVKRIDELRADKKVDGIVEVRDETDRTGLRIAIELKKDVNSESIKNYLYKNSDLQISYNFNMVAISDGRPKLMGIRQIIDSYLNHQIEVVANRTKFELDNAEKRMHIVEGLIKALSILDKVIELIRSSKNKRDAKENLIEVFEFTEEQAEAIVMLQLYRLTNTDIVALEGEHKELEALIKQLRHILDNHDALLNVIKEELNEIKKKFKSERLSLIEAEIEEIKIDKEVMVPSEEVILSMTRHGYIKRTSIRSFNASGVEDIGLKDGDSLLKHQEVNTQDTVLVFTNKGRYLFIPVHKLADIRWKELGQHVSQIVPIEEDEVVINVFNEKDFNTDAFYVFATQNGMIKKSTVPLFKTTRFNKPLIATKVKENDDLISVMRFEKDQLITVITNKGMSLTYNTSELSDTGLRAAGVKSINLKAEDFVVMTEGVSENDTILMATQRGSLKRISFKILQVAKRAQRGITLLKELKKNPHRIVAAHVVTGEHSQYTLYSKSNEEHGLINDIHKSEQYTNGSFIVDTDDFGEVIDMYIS
T4 sequence (P0C1S7 whole entry): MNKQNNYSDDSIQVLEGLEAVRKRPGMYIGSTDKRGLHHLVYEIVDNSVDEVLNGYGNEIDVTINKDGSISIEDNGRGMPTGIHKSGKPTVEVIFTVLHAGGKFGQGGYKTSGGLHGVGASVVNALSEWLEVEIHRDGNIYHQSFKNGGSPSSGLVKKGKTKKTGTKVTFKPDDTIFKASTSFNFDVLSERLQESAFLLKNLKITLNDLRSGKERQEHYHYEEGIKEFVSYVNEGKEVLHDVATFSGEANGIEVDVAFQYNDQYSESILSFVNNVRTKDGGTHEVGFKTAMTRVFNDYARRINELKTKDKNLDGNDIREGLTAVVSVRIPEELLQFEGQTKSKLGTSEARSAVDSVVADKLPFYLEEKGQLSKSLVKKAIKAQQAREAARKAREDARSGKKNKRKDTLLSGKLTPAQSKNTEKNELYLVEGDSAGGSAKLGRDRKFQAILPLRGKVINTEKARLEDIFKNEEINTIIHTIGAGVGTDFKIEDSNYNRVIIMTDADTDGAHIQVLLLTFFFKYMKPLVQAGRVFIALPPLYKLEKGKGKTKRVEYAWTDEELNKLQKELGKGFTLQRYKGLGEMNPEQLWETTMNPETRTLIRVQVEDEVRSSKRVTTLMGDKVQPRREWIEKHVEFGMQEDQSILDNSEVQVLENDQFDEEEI
Experimental: as §4

[9] = tested on: Vancomycin intermediate-resistant Staphylococcus aureus Mu50; assay: In vitro infectivity assay (MIC), Exp. Ex. 2-1; format: cell-based; settings: Staphylococcus aureus, VISA; Gram-positive; microdilution, MIC after 24 h; read-out: MIC VISA Mu50
Experimental: as §1
as §2, with “vancomycin-resistant enterococci (VRE),” for “methicillin-resistant Staphylococcus aureus (MRSA),”, “(VISA), methicillin-resistant Staphylococcus aureus (MRSA), and” for “(VISA),”, “(MSSA)” for “(MSSA), and vancomycin-resistant enterococci (VRE)”

[10] = tested on: Vancomycin-resistant enterococci NCTC 12201; assay: In vitro infectivity assay (MIC), Exp. Ex. 2-1; format: cell-based; settings: Enterococcus, NCTC 12201 / VRE; Gram-positive; microdilution, MIC after 24 h; read-out: MIC VRE NCTC 12201
Experimental: as §1
as §2, with “vancomycin-resistant enterococci (VRE),” for “methicillin-resistant Staphylococcus aureus (MRSA),”, “(VISA), methicillin-resistant Staphylococcus aureus (MRSA), and” for “(VISA),”, “(MSSA)” for “(MSSA), and vancomycin-resistant enterococci (VRE)”

[11] = tested on: Vancomycin-resistant enterococci FN-1; assay: In vitro infectivity assay (MIC), Exp. Ex. 2-1; format: cell-based; settings: Enterococcus, VRE; Gram-positive; microdilution, MIC after 24 h; read-out: MIC VRE FN-1
Experimental: as §1
as §2, with “vancomycin-resistant enterococci (VRE),” for “methicillin-resistant Staphylococcus aureus (MRSA),”, “(VISA), methicillin-resistant Staphylococcus aureus (MRSA), and” for “(VISA),”, “(MSSA)” for “(MSSA), and vancomycin-resistant enterococci (VRE)”

Escherichia coli K-12 = assay: Antibacterial activity (MIC) against Gram-negative strains, microdilution; format: cell-based; settings: K12, MIC after 24 h, read-out: MIC (Gram-nagative) K-12
How it was run: (§5)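 CLSI broth microdilution in Mueller-Hinton broth with 0.85% NaCl, inoculum about 10^5 […]. Incubated 35° C for 24 hours; MIC taken as the minimum inhibitory concentration, measured three times.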

[12] = tested on: Pseodomonas aeruginosa PAOI; assay: as above; format: cell-based; settings: MIC after 24 h, read-out: MIC (Gram-nagative) PAO1
How it was run: as §5

[13] = tested on: Streptococcus pneumoniae R6; assay: In vitro infectivity assay (MIC), Exp. Ex. 2-1; format: cell-based; settings: Streptococcus pneumoniae, R6; Gram-positive; microdilution, MIC after 24 h; read-out: MIC S. Pneumoniae R6

Compound | melting point [°C] | MIC [2] [µg/mL] | MIC [3] [µg/mL] | MIC [4] [µg/mL] | MIC [5] [µg/mL] | MIC [6] [µg/mL] | pIC50 (E. coli DNA gyrase) | pIC50 [7] | pIC50 [8] | MIC [9] [µg/mL] | MIC [10] [µg/mL] | MIC [11] [µg/mL] | MIC (Escherichia coli K-12) [µg/mL] | MIC [12] [µg/mL] | MIC [13] [µg/mL] | also measured
CCOc1ccc(C(=O)O[C@H]2[C@H](Oc3c(-c4ccc(O)c(O)c4)oc4cc(O)cc(O)c4c3=O)O[C@H](CO)[C@@H](O)[C@@H]2OC(=O)c2ccc(OCC)cc2)cc1 [Compound 15e, 2-(3′,4′-Dihydroxy)-5,7-dihydroxy-3-β-D-(2″,3″-di-p-ethoxybenzoyloxy)glucosyl-4H-chromen-4-one] | 122 to 123 | – | – | – | – | – | – | – | – | – | – | – | – | – | – | IC50 [1]: 10800 nM; MIC (MRSA OM481): 32 µg/mL (≈ 42.1 µM); MIC (VISA Mu50): 16 µg/mL (≈ 21 µM); MIC (MRSA N315): 8 µg/mL (≈ 10.5 µM); MIC (MRSA OM58): 32 µg/mL (≈ 42.1 µM); MIC (MSSA FDA 209P): 8 µg/mL (≈ 10.5 µM); MIC (VRE NCTC12201): 16 µg/mL (≈ 21 µM); MIC (VRE FN-1): 16 µg/mL (≈ 21 µM)
CCOc1ccc(C(=O)OC[C@H]2O[C@@H](Oc3c(-c4ccc(O)c(O)c4)oc4cc(O)cc(O)c4c3=O)[C@H](OC(=O)c3ccc(OCC)cc3)[C@@H](O)[C@H]2O)cc1 [Compound 14a, 2-(3″,4″-Dihydroxyphenyl)-5,7-dihydroxy-3-β-D-[2″,6″-di-O-(4-ethoxybenzoyl)]galactosyl-4H-chromen-4-one] | 108 to 110 | 4 (≈ 5.26 µM) | 16 (≈ 21 µM) | 4 (≈ 5.26 µM) | 4 (≈ 5.26 µM) | 8 (≈ 10.5 µM) | 6.37 | 5.13 | 5.75 | 4 (≈ 5.26 µM) | 8 (≈ 10.5 µM) | 8 (≈ 10.5 µM) | > 128 | > 128 | 4 (≈ 5.26 µM) | –
O=C(CCc1ccc(O)cc1)OC[C@H]1O[C@@H](Oc2c(-c3ccc(O)c(O)c3)oc3cc(O)cc(O)c3c2=O)[C@H](OC(=O)CCc2ccc(O)cc2)[C@@H](O)[C@H]1O [Compound 14f, 2-(3′,4′-Dihydroxyphenyl)-5,7-dihydroxy-3-β-D-{2″,6″-di-O-[3′″-(4-hydroxyphenylpropanoyl)]}galactosyl-4H-chromen-4-one] | 149 to 150 | 1 (≈ 1.31 µM) | 4 (≈ 5.26 µM) | 2 (≈ 2.63 µM) | 1 (≈ 1.31 µM) | 2 (≈ 2.63 µM) | 5.62 | 5.05 | 5.80 | 2 (≈ 2.63 µM) | 4 (≈ 5.26 µM) | 4 (≈ 5.26 µM) | > 128 | > 128 | 4 (≈ 5.26 µM) | –
